Experimental data from patent US8569305B2, “Treatment of tuberous sclerosis associated neoplasms” (Emory University, priority 2002, dated 2013).
“Also recorded” adds a separate entry of the source.

Key:
[1] = test system: Murine tsc2ang1 cells; assay: Inhibition of proliferation of tsc2ang1 cells by tyrosine kinase inhibitors (cell count); format: cell-based; settings: for N number of living cells after 72 h treatment: Murine tsc2ang1 cells
Excerpt: (§1) SV7tert (ATCC CRL 2461) is a cell line derived from a human angiomyolipoma through the sequential introduction of SV40 large T antigen and telomerase into primary human angiomyolipoma cells (Arbiser, J. L. et al. The generation and characterization of a cell line derived from a sporadic renal angiomyolipoma: use of telomerase to obtain stable populations of cells from benign neoplasms. Am.J.Pathol. 159, 483-491 (2001)). Angiomyolipomas are benign tumors of the kidney derived from putative perivascular epithelioid cells, that may undergo differentiation into cells with features of melanocytes, smooth muscle, and fat. Tsc2ang1 (ATCC CRL 2620) is a murine cell line derived from a cutaneous sarcoma arising in the extremity of a mouse heterozygous for tsc2. The sarcoma tissue was digested with collagenase and processed as described for SV7tert cells (Arbiser, J. L. et al.). Mice heterozygous for tsc2 develop cutaneous sarcomas at a frequency of approximately 10-15% (Onda, H., Lueck, A., Marks, P. W., Warren, H. B., & Kwiatkowski, D. J. Tsc2(+/−) mice develop tumors in multiple sites that express gelsolin and are influenced by genetic background. J.Clin Invest 104, 687-695 (1999)).
(§2) The following tyrosine kinase inhibitors were reconstituted as stock solutions in dimethyl sulfoxide (DMSO) immediately prior to use; AG9, AG17, AG18, AG30, AG82, AG99, AG112, AG370, AG490, AG879, AG957, AG1295, AG1296, AG1433, 2′thioadenosine, ST638, COMPOUND I, lavendustin C, oxindole 1, JAK3 inhibitors 1,2, and 3, as well as JAK3 inhibitor negative control. They can be obtained from Calbiochem (San Diego, Calif.). 10,000 cells per well in a 24 well dish were plated on day 1, and were treated with inhibitors in doses ranging from […] (LaMontagne Jr K. R. Jr et al. Inhibition of MAP kinase kinase causes morphological reversion and dissociation between soft agar growth and in vivo tumorigenesis in angiosarcoma cells; Am.J.Pathol. 157,1937-1945 (2000)). Cells were counted 72 hours after treatment with inhibitors using a Coulter Counter (Coulter, Hialeah,Fla.).

[2] = test system: Human SV7tert angiomyolipoma cells; assay: Inhibition of proliferation of SV7tert cells by tyrosine kinase inhibitors (cell count); format: cell-based; settings: for sensitivity / growth inhibition of SV7tert cells (in words): Human SV7tert cells in vitro; for N number of living cells after 72 h treatment: Human SV7tert cells; for No. of Cells after 72 hours: SV7tert cells
Excerpt: as §1, §2

[3] = test system: Akt phosphorylation in SV7tert cells; assay: Akt phosphorylation in SV7tert cells after treatment; format: cell-based, human; settings: after 24 hours of treatment

| SMILES | sensitivity / growth inhibition of SV7tert cells (in words) [2] | N number of living cells after 72 h treatment ([2]; concentration 10 μg/ml) | N number of living cells after 72 h treatment ([2]; concentration 20 μg/ml) | other results |
| --- | --- | --- | --- | --- |
| CC(C)(C)c1cc(C=C(C#N)C#N)cc(C(C)(C)C)c1O [AG17, 3,5-di-tert-butyl-4-hydroxybenzylidene-malononitrile] | highest sensitivity; also recorded: strongly inhibited | 23 ×100 | 22 ×100 | sensitivity / growth inhibition of tsc2ang1 cells (in words) ([1]; Murine tsc2ang1 cells in vitro): hypersensitivity; also recorded: strongly inhibited; N number of living cells after 72 h treatment ([1]; concentration 10 μg/ml): 23 ×100; N number of living cells after 72 h treatment ([1]; concentration 20 μg/ml): 23 ×100 |
| N#C/C(=C\c1ccc(O)c(O)c1)C(=O)O [AG30] | – | 250 ×100 | 270 ×100 | – |
| COC(=O)c1ccc(NCc2cc(O)ccc2O)cc1 [AG957] | highest sensitivity | – | – | inhibition ([2]; 0.5 μg/ml, data not shown, cell line not stated in the sentence (SV7tert by context)): approximately 90% |
| COc1cc2ncnc(Nc3cccc(Cl)c3)c2cc1OC [AG1478] | – | 251 ×100 | 210 ×100 | – |
| Cc1ccc(NC(=O)c2ccc(CN3CCN(C)CC3)cc2)cc1Nc1nccc(-c2cccnc2)n1 [COMPOUND I, N-{5-[4-(4-methyl-piperazino-methyl)-benzoylamido]-2-methylphenyl}-4-(3-pyridyl)-2-pyrimidine-amine] | increased sensitivity to COMPOUND I compared to murine tsc2ang1 | – | – | Akt phosphorylation (in words) [3]: downregulation of Akt phosphorylation; No. of Cells after 72 hours ([2]; 2 μg/ml (control 22450)): 16500; No. of Cells after 72 hours ([2]; 5 μg/ml (control 22450)): 10000; No. of Cells after 72 hours ([2]; 10 μg/ml (control 22450)): 6500 |
| CCOc1cc(/C=C(\C#N)C(N)=O)cc(CSc2ccccc2)c1O [ST638] | – | 250 ×100 | 205 ×100 | – |
